Measured values from the supplement of paper PMC11061612.

Tests used:
Venetoclax = compound: CC1(C)CCC(CN2CCN(c3ccc(C(=O)NS(=O)(=O)c4ccc(NCC5CCOCC5)c([N+](=O)[O-])c4)c(Oc4cnc5[nH]ccc5c4)c3)CC2)=C(c2ccc(Cl)cc2)C1 [Venetoclax]; settings: max 1 µM
How it was run: (§1)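 Cancer cell lines were plated in 1536-well plates in 7.5 μl of DMEM/F12 or RPMI with 10% FBS and kept 24 hours at 37°C and 5% CO2 before 72 hours of dosing, with final DMSO typically 0.2%. CellTiter-Glo 2.0 luminescence measured viability, scaled between blank-well and DMSO-well means. Dose responses were fitted to a two-parameter logistic curve with a non-linear mixed effects model. This fit gives the single-agent IC50.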

AZD1390 = compound: CC(C)n1c(=O)n(C)c2cnc3cc(F)c(-c4ccc(OCCCN5CCCCC5)nc4)cc3c21 [AZD1390]; settings: max 0.3 µM
How it was run: as §1

SG3199 = compound: CC1=CN2[C@@H](C1)C=NC3=CC(=C(C=C3C2=O)OC)OCCCCCOC4=C(C=C5C(=C4)N=C[C@@H]6CC(=CN6C5=O)C)OC [SG3199]; settings: max 0.001 µM
How it was run: as §1

AZD5153 = compound: COc1nnc2ccc(N3CCC(c4ccc(OCCN5CCN(C)C(=O)[C@H]5C)cc4)CC3)nn12 [AZD5153]; settings: max 1 µM
How it was run: as §1

Selumetinib = compound: Cn1cnc2c(F)c(Nc3ccc(Br)cc3Cl)c(C(=O)NOCCO)cc21 [Selumetinib]; settings: max 10 µM
How it was run: as §1

Gefitinib = compound: COc1cc2ncnc(Nc3ccc(F)c(Cl)c3)c2cc1OCCCN1CCOCC1 [Gefitinib]; settings: max 10 µM
How it was run: as §1

AZD5991 = compound: Cc1c2c(nn1C)CSCc1cc(n(C)n1)CSc1cc(c3ccccc3c1)OCCCc1c(C(=O)O)n(C)c3c-2c(Cl)ccc13 [AZD5991]; settings: max 1 µM
How it was run: as §1

AZD0156 = compound: CN(C)CCCOc1ccc(-c2ccc3ncc4c(c3c2)n(C2CCOCC2)c(=O)n4C)cn1 [AZD0156]; settings: max 3 µM
How it was run: as §1

Lapatinib = compound: CS(=O)(=O)CCNCc1ccc(-c2ccc3ncnc(Nc4ccc(OCc5cccc(F)c5)c(Cl)c4)c3c2)o1 [Lapatinib]; settings: max 10 µM
How it was run: as §1

Doxorubicin = compound: COc1cccc2c1C(=O)c1c(O)c3c(c(O)c1C2=O)C[C@@](O)(C(=O)CO)C[C@@H]3O[C@H]1C[C@H](N)[C@H](O)[C@H](C)O1 [Doxorubicin]; settings: max 1 µM
How it was run: as §1

Crizotinib = compound: C[C@@H](Oc1cc(-c2cnn(C3CCNCC3)c2)cnc1N)c1c(Cl)ccc(F)c1Cl [Crizotinib]; settings: max 10 µM
How it was run: as §1

AZD1775 = compound: C=CCn1c(=O)c2cnc(Nc3ccc(N4CCN(C)CC4)cc3)nc2n1-c1cccc(C(C)(C)O)n1 [AZD1775]; settings: max 3 µM
How it was run: as §1

Palbociclib = compound: CC(=O)c1c(C)c2cnc(Nc3ccc(N4CCNCC4)cn3)nc2n(C2CCCC2)c1=O [Palbociclib]; settings: max 10 µM
How it was run: as §1

AZD2811 = compound: CCN(CCO)CCCOc1ccc2c(Nc3cc(CC(=O)Nc4cccc(F)c4)[nH]n3)ncnc2c1 [AZD2811]; settings: max 1 µM
How it was run: as §1

Olaparib = compound: O=C(c1cc(Cc2n[nH]c(=O)c3ccccc23)ccc1F)N1CCN(C(=O)C2CC2)CC1 [Olaparib]; settings: max 10 µM
How it was run: as §1

Dasatinib = compound: CC1=C(C(=CC=C1)Cl)NC(=O)C2=CN=C(S2)NC3=CC(=NC(=N3)C)N4CCN(CC4)CCO [Dasatinib]; settings: max 2 µM
How it was run: as §1

Prexasertib = compound: COc1cccc(OCCCN)c1-c1cc(Nc2cnc(C#N)cn2)n[nH]1 [Prexasertib]; settings: max 1 µM
How it was run: as §1

Alisertib = compound: COc1cc(Nc2ncc3c(n2)-c2ccc(Cl)cc2C(c2c(F)cccc2OC)=NC3)ccc1C(=O)O [Alisertib]; settings: max 10 µM
How it was run: as §1

AZD7648 = compound: Cc1cc2ncnn2cc1Nc1ncc2c(n1)n(C1CCOCC1)c(=O)n2C [AZD7648]; settings: max 10 µM
How it was run: as §1

Trametinib = compound: CC(=O)Nc1cccc(-n2c(=O)n(C3CC3)c(=O)c3c(Nc4ccc(I)cc4F)n(C)c(=O)c(C)c32)c1 [Trametinib]; settings: max 1 µM
How it was run: as §1

Taselisib = compound: Cc1nc(-c2cn3c(n2)-c2ccc(-c4cnn(C(C)(C)C(N)=O)c4)cc2OCC3)n(C(C)C)n1 [Taselisib]; settings: max 10 µM
How it was run: as §1

AZD8186 = compound: C[C@@H](Nc1cc(F)cc(F)c1)c1cc(C(=O)N(C)C)cc2c(=O)cc(N3CCOCC3)oc12 [AZD8186]; settings: max 3 µM
How it was run: as §1

Capivasertib = compound: C1CN(CCC1(C(=O)N[C@@H](CCO)C2=CC=C(C=C2)Cl)N)C3=NC=NC4=C3C=CN4 [Capivasertib]; settings: max 10 µM
How it was run: as §1

SN-38 = compound: CCc1c2c(nc3ccc(O)cc13)-c1cc3c(c(=O)n1C2)COC(=O)[C@]3(O)CC [SN-38]; settings: max 0.3 µM
How it was run: as §1

AZD4320 = compound: CN(CC[C@H](CSC1=CC=CC=C1)NC2=C(C=C(C=C2)S(=O)(=O)NC(=O)C3=CC=C(C=C3)N4CCC(CC4)[C@H](C5=CC=CC=C5C6=CC=C(C=C6)Cl)O)S(=O)(=O)C(F)(F)F)CCO [AZD4320]; settings: max 1 µM
How it was run: as §1

Savolitinib = compound: C[C@@H](c1ccc2nccn2c1)n1nnc2ncc(-c3cnn(C)c3)nc21 [Savolitinib]; settings: max 1 µM
How it was run: as §1

AZD6738 = compound: C[C@@H]1COCCN1C2=NC(=NC(=C2)C3(CC3)[S@](=N)(=O)C)C4=C5C=CNC5=NC=C4 [AZD6738]; settings: max 10 µM
How it was run: as §1

Row | Cell Line | IC50, cell viability 72 h (Venetoclax) | IC50, cell viability 72 h (AZD1390) | IC50, cell viability 72 h (SG3199) | IC50, cell viability 72 h (AZD5153) | IC50, cell viability 72 h (Selumetinib) | IC50, cell viability 72 h (Gefitinib) | IC50, cell viability 72 h (AZD5991) | IC50, cell viability 72 h (AZD0156) | IC50, cell viability 72 h (Lapatinib) | IC50, cell viability 72 h (Doxorubicin) | IC50, cell viability 72 h (Crizotinib) | IC50, cell viability 72 h (AZD1775) | IC50, cell viability 72 h (Palbociclib) | IC50, cell viability 72 h (AZD2811) | IC50, cell viability 72 h (Olaparib) | IC50, cell viability 72 h (Dasatinib) | IC50, cell viability 72 h (Prexasertib) | IC50, cell viability 72 h (Alisertib) | IC50, cell viability 72 h (AZD7648) | IC50, cell viability 72 h (Trametinib) | IC50, cell viability 72 h (Taselisib) | IC50, cell viability 72 h (AZD8186) | IC50, cell viability 72 h (Capivasertib) | IC50, cell viability 72 h (SN-38) | IC50, cell viability 72 h (AZD4320) | IC50, cell viability 72 h (Savolitinib) | IC50, cell viability 72 h (AZD6738)
1 | KMS-12-BM (Plasma Cell Myeloma) | 16.4 nM | > 300 nM | > 1 nM | 13.4 nM | > 10000 nM | > 10000 nM | 13.9 nM | > 3000 nM | 7080 nM | 891 nM | 3540 nM | 329 nM | 3660 nM | > 1000 nM | > 10000 nM | > 2000 nM | 17 nM | 3570 nM | > 10000 nM | > 1000 nM | 2430 nM | > 3000 nM | 9310 nM | 24.8 nM | 17.3 nM | > 1000 nM | –
2 | MOLM-13 (Acute Myeloid Leukemia) | 23.5 nM | > 300 nM | > 1 nM | 28.9 nM | 4040 nM | 4320 nM | 46.5 nM | > 3000 nM | > 10000 nM | 40 nM | 1230 nM | 160 nM | 605 nM | 18.9 nM | 6770 nM | 932 nM | 5.31 nM | 52.7 nM | > 10000 nM | 24.2 nM | 6310 nM | > 3000 nM | 1870 nM | 3.55 nM | 6.77 nM | > 1000 nM | 584 nM
3 | NCI-H661 (Non-Small Cell Lung Carcinoma) | > 1000 nM | > 300 nM | > 1 nM | > 1000 nM | > 10000 nM | > 10000 nM | > 1000 nM | > 3000 nM | > 10000 nM | > 1000 nM | > 10000 nM | 765 nM | > 10000 nM | > 1000 nM | > 10000 nM | > 2000 nM | 46.8 nM | > 10000 nM | > 10000 nM | > 1000 nM | > 10000 nM | > 3000 nM | > 10000 nM | > 300 nM | > 1000 nM | > 1000 nM | > 10000 nM
4 | PC-3 (Prostate Carcinoma) | > 1000 nM | > 300 nM | > 1 nM | > 1000 nM | > 10000 nM | > 10000 nM | > 1000 nM | > 3000 nM | > 10000 nM | > 1000 nM | > 10000 nM | > 3000 nM | > 10000 nM | > 1000 nM | > 10000 nM | > 2000 nM | > 1000 nM | > 10000 nM | > 10000 nM | > 1000 nM | > 10000 nM | > 3000 nM | > 10000 nM | 82.7 nM | > 1000 nM | > 1000 nM | > 10000 nM
5 | RD (Rhabdomyosarcoma) | > 1000 nM | > 300 nM | > 1 nM | 951 nM | > 10000 nM | > 10000 nM | > 1000 nM | > 3000 nM | > 10000 nM | > 1000 nM | > 10000 nM | 1030 nM | > 10000 nM | > 1000 nM | > 10000 nM | > 2000 nM | 465 nM | > 10000 nM | > 10000 nM | > 1000 nM | 2270 nM | > 3000 nM | > 10000 nM | > 300 nM | 706 nM | > 1000 nM | > 10000 nM
6 | RPMI-8226 (Plasma Cell Myeloma) | > 1000 nM | > 300 nM | > 1 nM | 114 nM | > 10000 nM | > 10000 nM | 88.2 nM | > 3000 nM | > 10000 nM | 599 nM | > 10000 nM | 1600 nM | 5790 nM | > 1000 nM | > 10000 nM | > 2000 nM | 30.5 nM | 1410 nM | > 10000 nM | > 1000 nM | > 10000 nM | > 3000 nM | > 10000 nM | 59.6 nM | 150 nM | > 1000 nM | 2020 nM
7 | SK-GT-2 (Gastric Carcinoma) | > 1000 nM | > 300 nM | > 1 nM | > 1000 nM | > 10000 nM | 4890 nM | > 1000 nM | > 3000 nM | 1130 nM | > 1000 nM | > 10000 nM | 848 nM | > 10000 nM | > 1000 nM | > 10000 nM | > 2000 nM | 76.7 nM | > 10000 nM | > 10000 nM | > 1000 nM | 6640 nM | > 3000 nM | > 10000 nM | > 300 nM | > 1000 nM | > 1000 nM | > 10000 nM
8 | SNU-398 (Hepatocellular Carcinoma) | > 1000 nM | > 300 nM | > 1 nM | 941 nM | > 10000 nM | > 10000 nM | 150 nM | > 3000 nM | > 10000 nM | > 1000 nM | > 10000 nM | 701 nM | > 10000 nM | 801 nM | > 10000 nM | > 2000 nM | 777 nM | 4320 nM | > 10000 nM | 849 nM | > 10000 nM | > 3000 nM | > 10000 nM | > 300 nM | > 1000 nM | > 1000 nM | > 10000 nM
